Assay results as given in ChEMBL document CHEMBL1127510, “Plant antitumor agents. 31. The calycopterones, a new class of biflavonoids with novel cytotoxicity in a diverse panel of human tumor cell lines” (J Med Chem, 1994).
Values after ≈ are worked out from the molar mass of the structure shown. Values joined by “and” are separate entries in the source; they are usually repeats but may differ in a detail not shown here. Identical values can stand only once.

Columns and labels:
[1] = tested on: A-431; experiment: In vitro cytotoxicity against epidermoid carcinoma cell line; type: functional, cell-based; conditions: Homo sapiens
[2] = tested on: BC1 cell line; experiment: In vitro cytotoxicity against breast cancer cell line; type: functional, cell-based; conditions: Homo sapiens
[3] = tested on: Colon carcinoma cell; experiment: In vitro cytotoxicity against colon cancer cell line; type: functional, cell-based; conditions: Homo sapiens
[4] = tested on: Fibrosarcoma cell line; experiment: In vitro cytotoxicity against fibrosarcoma cell line; type: functional, cell-based; conditions: Homo sapiens
[5] = tested on: KB; experiment: In vitro cytotoxicity against oral epidermoid carcinoma cell line; type: functional, cell-based; conditions: Homo sapiens
[6] = tested on: P388; experiment: In vitro cytotoxicity against murine lymphoid neoplasm cell line; type: functional, cell-based; conditions: Mus musculus
[7] = tested on: U373 MG; experiment: In vitro cytotoxicity against glioblastoma cell line; type: functional, cell-based, U-373MG ATCC; conditions: Homo sapiens
[8] = tested on: Lung cancer cell line; experiment: In vitro cytotoxicity against lung cancer cell line; type: functional, cell-based; conditions: Homo sapiens
[9] = tested on: KB; experiment: In vitro cytotoxicity against vinblastine resistant KB cell line; type: functional, cell-based; conditions: Homo sapiens
[10] = tested on: HT-29; experiment: Compound was tested for cytotoxicity against colon adenocarcinoma; type: functional, cell-based, Homo sapiens
[11] = tested on: SK-OV-3; experiment: Comparison of cytotoxicity of calycopterone and flavone with doxorubicin against ovarian adenocarcinoma; type: functional, cell-based, Homo sapiens
[12] = tested on: SK-VLB; experiment: Compound was tested for cytotoxicity against ovarian adenocarcinoma, multidrug resistant; type: functional, cell-based; conditions: Homo sapiens
[13] = tested on: SK-OV-3; experiment: Compound was tested for cytotoxicity against ovarian adenocarcinoma; conditions: Homo sapiens
[14] = tested on: SK-VLB; experiment: Compound was tested for cytotoxicity against ovarian adenocarcinoma, multidrug resistant; conditions: Homo sapiens

Compound | EC50 [1] [µg/mL] | EC50 [2] [µg/mL] | EC50 [3] [µg/mL] | EC50 [4] [µg/mL] | EC50 [5] [µg/mL] | EC50 [6] [µg/mL] | EC50 [7] [µg/mL] | EC50 [8] [µg/mL] | EC50 [9] [µg/mL] | IC50 ([10]; ht-29) | IC50 [11] | IC50 [12] [nM] | IC50 ([10]; Homo sapiens, HT-29) [nM] | IC50 [13] [nM] | IC50 [14] [nM]
COC1=C(OC)[C@@]2(OC)c3c(OC)c(O)c4c(c3O[C@@]23O[C@@H](c2ccccc2)CC=C3C1=O)[C@@H](OC)C[C@H](c1ccccc1)O4 | 0.4 (≈ 0.651 µM) | 0.4 (≈ 0.651 µM) | 0.3 (≈ 0.488 µM) | 0.4 (≈ 0.651 µM) | 0.4 (≈ 0.651 µM) | 0.2 (≈ 0.325 µM) | 0.8 (≈ 1.3 µM) | 0.7 (≈ 1.14 µM) | – | – | – | – | – | – | –
COC1=C(OC)[C@@]2(OC)c3c(O)c(OC)c4c(c3O[C@@]23O[C@@H](c2ccccc2)CC=C3C1=O)[C@@H](O)C[C@H](c1ccccc1)O4 | 0.2 (≈ 0.333 µM) | 1.4 (≈ 2.33 µM) | 0.3 (≈ 0.499 µM) | 0.8 (≈ 1.33 µM) | 1.2 (≈ 2 µM) | 0.42 (≈ 0.699 µM) | 0.3 (≈ 0.499 µM) | 1.6 (≈ 2.66 µM) | 8.6 (≈ 14.3 µM) | – | – | – | – | – | –
COC1=C(OC)[C@@]2(OC)c3c(O)c(OC)c4c(c3O[C@@]23O[C@@H](c2ccccc2)CC=C3C1=O)[C@@H](OC)C[C@H](c1ccccc1)O4 [CALYCOPTERONE] | 1 (≈ 1.63 µM) | 5.4 (≈ 8.79 µM) | 0.4 (≈ 0.651 µM) | 1.8 (≈ 2.93 µM) | 0.8 (≈ 1.3 µM) | 0.78 (≈ 1.27 µM) | 0.1 (≈ 0.163 µM) | 1.2 (≈ 1.95 µM) | 9.6 (≈ 15.6 µM) | 240 nM and 930 nM | 125 nM and 1000 nM | 1900 | – | – | –
COc1cc(-c2oc3cc(OC)c(OC)c(O)c3c(=O)c2OC)ccc1O [CHRYSOSPLENOL B] | > 20 | > 20 | > 20 | 4.2 (≈ 11.2 µM) | > 20 | > 20 | > 20 | > 20 | 0.8 (≈ 2.14 µM) | – | – | – | 14200 | 79000 | > 133000
COc1cccc2c1C(=O)c1c(O)c3c(c(O)c1C2=O)C[C@@](O)(C(=O)CO)C[C@@H]3O[C@H]1C[C@H](N)[C@H](O)[C@H](C)O1 [DOXORUBICIN] | – | – | – | – | – | – | – | – | – | – | – | – | 180 | 43 | > 10000
